For the assay, the system named is central nervous system cancer. Description: 3D clonogenic assay, Example 2, central nervous system cancer. The conditions noted are these: n=6 models. It is filed as cell-based. How it is done:
The present study investigated plinabulin for anticancer activity ex vivo in 68 out of 71 originally planned patient-derived xenograft (PDX) models representing major cancer types. Experiments were performed using a 3D clonogenic assay in a 96-well format with colony count based on image analysis as a read-out. By using this assay, the investigational compound was assessed for the ability to inhibit anchorage independent growth and ex vivo colony formation of tumor cells in semi-solid medium.
A master stock solution of plinabulin was prepared by dissolving the compound in DMSO at a concentration of 9.9 mM. Working stock solutions were prepared by diluting the master stock solution with DMSO to a concentration of 0.99 mM (330-fold the highest test concentration). Small aliquots of the master and working stock were stored at −20° C. […]
Plinabulin was investigated in 68 PDX models representing a number of cancer types. […] The percentage of viable cells was determined in a Neubauer-hemocytometer using trypan blue exclusion. […]
The clonogenic assay was carried out in a 96 well plate format using ultra low attachment plates. […] Cultures were incubated at 37° C. and 7.5% CO2 in a humidified atmosphere 13 days in total and monitored closely for colony growth using an inverted microscope. […]

This note sets out measurements from US20240408082A1, “METHODS FOR TREATING CANCERS AND TUMORS” (BEYONDSPRING PHARMACEUTICALS, INC., priority 2021, published 2024).

What is called IC50 is the concentration needed to halve the response being measured.

`CC(C)(C)c1[nH]cnc1/C=c1\[nH]c(=O)/c(=C/c2ccccc2)[nH]c1=O` [plinabulin, (3Z,6Z)-3-Benzylidene-6-{[5-(2-methyl-2-propanyl)-1H-imidazol-4-yl]methylene}-2,5-piperazinedione]: the “geom. mean abs. IC70” value amounted to 1521 nM. In addition, for the setting “read-out: geom. mean abs. IC50”, the IC50 turned out to be 426 nM.
